≈ marks a conversion by molar mass, not a printed value. Entries after “also recorded” stand apart in the source; their conditions may differ. Structures can show the parent of a compound that is named as a salt. Where two headings read alike, the source gives them in different places.
How the values were obtained:
[1] = test system: influenza A/Swine/Iowa/30 (H1N1) virus; type: cell-based; conditions: for Antiviral activity relative to oseltamivir (Tamiflu): concentrations corresponding to 1/2 of CC50; for Efficacy relative to commercially available oseltamivir: at similar or lower concentrations
[2] = Cytotoxicity in vitro, MTT test on MDCK cell culture; conditions: dog
in vitro = conditions: dog

## CCCN1CCC(O)(C(=O)O)CC1 [3b, Hydrochloride of 1-propyl-4-carboxy-4-hydroxypiperidine]
[1]; 0.15 mg/mL, PC titre 5.0 ± 0
  Titre in HAU: 5.0 ± 0 log2
[1]; 0.30 mg/mL, PC titre 5.0 ± 0
  Titre in HAU: 5.0 ± 0 log2
[1]; 0.59 mg/mL, PC titre 5.0 ± 0
  Titre in HAU: 5.0 ± 0 log2
[1]; 1.19 mg/mL, PC titre 5.0 ± 0
  Titre in HAU: 5.0 ± 0 log2
[1]; 2.38 mg/mL, PC titre 5.0 ± 0
  Titre in HAU: 4.4 ± 0.6 log2
[1]; 4.75 mg/mL (maximum tested concentration)
  Reduction of virus replication: 1.0 log2
[1]; 4.75 mg/mL, PC titre 5.0 ± 0
  Titre in HAU: 4.0 ± 0 log2
[1]
  Antiviral activity relative to oseltamivir (Tamiflu): slightly inferior; also recorded: significantly lower antiviral activity
[2]
  CC50 at 72 h: 9500 ± 364 µg/mL

## O=C(OC1(C(=O)O)CCN(Cc2ccccc2)CC1)C1CC1 [5c, Hydrochloride of 1-benzyl-4-cyclopropanoyloxy-piperidine-4-carboxylic acid]
[1]; 0.058 mg/mL, PC titre 5.0 ± 0
  Titre in HAU: 5.0 ± 0 log2
[1]; 0.116 mg/mL, PC titre 5.0 ± 0
  Titre in HAU: 5.0 ± 0 log2
[1]; 0.231 mg/mL, PC titre 5.0 ± 0
  Titre in HAU: 5.0 ± 0 log2
[1]; 0.463 mg/mL, PC titre 5.0 ± 0
  Titre in HAU: 5.0 ± 0 log2
[1]; 0.925 mg/mL, PC titre 5.0 ± 0
  Titre in HAU: 4.4 ± 0.6 log2
[1]; 1.85 mg/mL (maximum investigated concentration)
  Suppression of virus replication compared to the control group: 1.2 log2
[1]; 1.850 mg/mL, PC titre 5.0 ± 0
  Titre in HAU: 3.8 ± 1.1 log2
[1]; concentrations below 1.85 mg/mL
  Antiviral effect at the other concentrations tested: No statistically significant antiviral effect
[1]; concentrations equivalent to 1/2 CC50
  Level of antiviral activity relative to rimantadine: comparable to that of rimantadine
[2]
  CC50 at 72 h: 3700 ± 189 µg/mL

## O=C(OC1(C(=O)O)CCN(CCc2ccccc2)CC1)C1CC1 [5d, Hydrochloride of 1-(2-phenylethyl)-4-cyclopropanoyloxy-piperidine-4-carboxylic acid]
[1]; 0.0025 mg/mL, PC titre 6.0 ± 0
  Titre in HAU: 6.0 ± 0 log2
[1]; 0.0050 mg/mL, PC titre 6.0 ± 0
  Titre in HAU: 6.0 ± 0 log2
[1]; 0.0100 mg/mL, PC titre 6.0 ± 0
  Titre in HAU: 6.0 ± 0 log2
[1]; 0.0200 mg/mL, PC titre 6.0 ± 0
  Titre in HAU: 6.0 ± 0 log2
[1]; 0.04 mg/mL
  Reduction of virus replication: 1.2 log2
[1]; 0.0400 mg/mL, PC titre 6.0 ± 0
  Titre in HAU: 4.8 ± 0.5 log2
[1]; 0.08 mg/mL
  Reduction of virus replication: 2.0 log2
[1]; 0.0800 mg/mL, PC titre 6.0 ± 0
  Titre in HAU: 4.0 ± 0 log2
[1]
  Antiviral activity relative to oseltamivir (Tamiflu): slightly inferior
[2]
  CC50 at 72 h: 160 ± 6 µg/mL

## CC(N)C12CC3CC(CC(C3)C1)C2 (stereo not shown) [Rimantadine, reference compound]
[1]; 0.003 mg/mL, PC titre 6.0 ± 0
  Titre in HAU: 4.2 ± 0.4 log2
[1]; 0.005 mg/mL, PC titre 6.0 ± 0
  Titre in HAU: 4.2 ± 0.4 log2
[1]; 0.010 mg/mL, PC titre 6.0 ± 0
  Titre in HAU: 4.2 ± 0.4 log2
[1]; 0.020 mg/mL, PC titre 6.0 ± 0
  Titre in HAU: 4.2 ± 0.4 log2
[1]; 0.040 mg/mL, PC titre 6.0 ± 0
  Titre in HAU: 4.2 ± 0.4 log2
[1]; 0.080 mg/mL, PC titre 6.0 ± 0
  Titre in HAU: 4.2 ± 0.4 log2
In vitro
  CC50 at 72 h: 160 ± 11 µg/mL (≈ 892 µM)

## CCOC(=O)C1=C[C@@H](OC(CC)CC)[C@H](NC(C)=O)[C@@H](N)C1 [Tamiflu, oseltamivir, reference compound]
[1]; 0.01 mg/mL, PC titre 5.0 ± 0
  Titre in HAU: 4.0 ± 0 log2
[1]; 0.02 mg/mL, PC titre 5.0 ± 0
  Titre in HAU: 4.0 ± 0 log2
[1]; 0.04 mg/mL, PC titre 5.0 ± 0
  Titre in HAU: 3.0 ± 0 log2
[1]; 0.08 mg/mL, PC titre 5.0 ± 0
  Titre in HAU: 3.0 ± 0 log2
[1]; 0.17 mg/mL, PC titre 5.0 ± 0
  Titre in HAU: 2.4 ± 0.5 log2
[1]; 0.33 mg/mL, PC titre 5.0 ± 0
  Titre in HAU: 2.4 ± 0.5 log2
[1]; 0.02 and 0.01 mg/mL
  Reduction of viral load: 1.0 log2
[1]; 0.08 and 0.04 mg/mL
  Reduction of viral load: 2.0 log2
[1]; 0.33 and 0.17 mg/mL
  Reduction in the reproduction of 100 infectious doses of the virus: 2.6 log2
[2]
  CC50 at 72 h: 660 ± 91 µg/mL (≈ 2110 µM)

## O=C(OC1CCN(Cc2ccccc2)CC1)c1ccc(C(F)(F)F)cc1 [compound 8, Hydrochloride of 1-benzyl-4-trifluoromethylbenzoyloxy-piperidine]
[1]; 0.0011 mg/mL, PC titre 6.0 ± 0
  Titre in HAU: 6.0 ± 0 log2
[1]; 0.0022 mg/mL, PC titre 6.0 ± 0
  Titre in HAU: 6.0 ± 0 log2
[1]; 0.0044 mg/mL, PC titre 6.0 ± 0
  Titre in HAU: 6.0 ± 0 log2
[1]; 0.0088 mg/mL, PC titre 6.0 ± 0
  Titre in HAU: 5.0 ± 0 log2
[1]; 0.0175 mg/mL, PC titre 6.0 ± 0
  Titre in HAU: 5.0 ± 0 log2
[1]; 0.035 mg/mL
  Reduction of viral load: 2.0 log2
[1]; 0.0350 mg/mL, PC titre 6.0 ± 0
  Titre in HAU: 4.0 ± 0 log2
[1]; 0.0175 and 0.0088 mg/mL
  Reduction of viral load: 1.0 log2
[1]
  Efficacy relative to commercially available oseltamivir: comparable efficacy
  Antiviral activity relative to oseltamivir (Tamiflu): slightly inferior
[2]
  CC50 at 72 h: 70 ± 5 µg/mL

## O=C(ON=C1CCN(Cc2ccccc2)CC1)c1c(F)cccc1F [compound 11, Hydrochloride of 1-benzyl-4-(2,6-difluoro-benzoyloxymino) piperidine]
[1]; 0.0020 mg/mL, PC titre 6.0 ± 0
  Titre in HAU: 6.0 ± 0 log2
[1]; 0.0041 mg/mL, PC titre 6.0 ± 0
  Titre in HAU: 6.0 ± 0 log2
[1]; 0.0081 mg/mL, PC titre 6.0 ± 0
  Titre in HAU: 6.0 ± 0 log2
[1]; 0.0163 mg/mL, PC titre 6.0 ± 0
  Titre in HAU: 6.0 ± 0 log2
[1]; 0.0325 mg/mL, PC titre 6.0 ± 0
  Titre in HAU: 4.0 ± 0 log2
[1]; 0.0650 mg/mL, PC titre 6.0 ± 0
  Titre in HAU: 4.0 ± 0 log2
[1]; 0.0650 and 0.0325 mg/mL
  Inhibition of replication of 100 infectious doses compared to the control group: 2.0 log2
[1]
  Efficacy relative to commercially available oseltamivir: comparable efficacy
  Antiviral activity relative to oseltamivir (Tamiflu): slightly inferior
[2]
  CC50 at 72 h: 130 ± 2 µg/mL

Reference: paper PMC12196486, “Search for Antiviral Preparations in Series of New Derivatives of N-Substituted Piperidines” (Molecules, 2025)
